Test results taken from patent US20210246115A1 (Bioimics AB, priority 2017, published 2021).
pIC50: −log10 of the molar value. In brackets after ≈: the same amount, converted by molar mass. Structures can show the parent of a compound that is named as a salt. Where two headings read alike, the source gives them in different places. One block for each molecule: values may come before it.

What was measured:
[1] = test system: E. coli RNase P RNA, M1 RNA; experiment: Inhibition of bacterial RNase P activity, IC50 determination (cleavage of pATSerUG by M1 RNA); type: biochemical; conditions: NI: No inhibition
[2] = test system: Staphylococcus aureus subsp. aureus (ATCC29213); experiment: MIC, broth microdilution (CLSI), Staphylococcus aureus ATCC29213; type: cell-based; conditions: for MIC: Staphylococcus aureus
[3] = test system: Escherichia coli (ATCC25922); experiment: MIC, broth microdilution (CLSI), Escherichia coli; conditions: for MIC: Escherichia coli, ATCC25922, read-out: E. coli ATCC 25922 MIC, Table XIII
[4] = ATCC29213, Table XIII, read-out: S. aureus ATCC 29213 MIC
[5] = ATCC29213, read-out: S. aureus ATCC 29213 MIC, Table XIII

Compound: Cc1cccc(C(CCNC2CCNCC2)c2cn(C3CCCC3)c3ccccc23)c1.Cl.Cl (stereo not drawn) [Compound 333, N-(3-(1-cyclopentyl-1H-indol-3-yl)-3-(m-tolyl)propyl)piperidin-4-amine hydrochloride salt]
pIC50 [1]: 4.05
MIC [2, 4]: 16 µg/mL
MIC [3]: 8 µg/mL

Compound: CC(C)=CCC/C(C)=C/Cn1cc(C(CCNCCCN)C2CCCCC2)c2ccccc21 (stereo not drawn) [Compound 421, (E)-N1-(3-cyclohexyl-3-(1-(3,7-dimethylocta-2,6-dien-1-yl)-1H-indol-3-yl)propyl)propane-1,3-diamine]
pIC50 [1]: 5.08
MIC [2, 4]: 4 µg/mL (≈ 8.89 µM)
MIC [3]: 8 µg/mL (≈ 17.8 µM)

Compound: Cl.Cl.NCCCNCCC(c1cc(Cl)cc(Cl)c1)c1cn(C2CCCCC2)c2ccccc12 (stereo not drawn) [Compound 349, N1-(3-(1-cyclohexyl-1H-indol-3-yl)-3-(3,5-dichlorophenyl)propyl) propane-1,3-diamine hydrochloride salt]
pIC50 [1]: 4.80
MIC [2, 4]: 2 µg/mL
MIC [3]: 4 µg/mL

Compound: Cl.Cl.NCCCNCCC(c1cccc(OC(F)(F)F)c1)c1cn(C2CCCCC2)c2ccccc12 (stereo not drawn) [Compound 370, N1-(3-(1-cyclohexyl-1H-indol-3-yl)-3-(3-(trifluoromethoxy)phenyl)propyl) propane-1,3-diamine salt]
pIC50 [1]: 5.08
MIC [2, 4]: 4 µg/mL
MIC [3]: 4 µg/mL

Compound: Cc1cccc(C(CCNC2CCNCC2)c2cn(C3CCCCC3)c3ccccc23)c1 (stereo not drawn) [Compound 309, N-(3-(1-cyclohexyl-1H-indol-3-yl)-3-(m-tolyl)propyl)piperidin-4-amine hydrochloride salt]
pIC50 [1]: 4.41
MIC [2, 5]: 8 µg/mL
MIC [3]: 4 µg/mL

Compound: N#Cc1ccc2c(C(CCNC3CCNCC3)c3cccc(OC(F)(F)F)c3)cn(C3CCCCC3)c2c1 (stereo not drawn) [Compound 414, 1-cyclohexyl-3-(3-(piperidin-4-ylamino)-1-(3-(trifluoromethoxy)phenyl)propyl)-1H-indole-6-carbonitrile hydrochloride salt]
pIC50 [1]: 4.80
MIC [2, 5]: 4 µg/mL
MIC [3]: 8 µg/mL

Compound: CCC(CC)C(CCNCCCN)c1cn(C2CCCCC2)c2ccccc12.Cl.Cl (stereo not drawn) [Compound 416, N1-(3-(1-cyclohexyl-1H-indol-3-yl)-4-ethylhexyl)propane-1,3-diamine hydrochloride salt]
pIC50 [1]: 4.59
MIC [2, 4]: 4 µg/mL
MIC [3]: 2 µg/mL

Compound: Cl.Cl.NCCCNCCC(c1cn(C2CCCCC2)c2ccc(Br)cc12)C1CCCCC1 (stereo not drawn) [Compound 429, N1-(3-(5-bromo-1-cyclohexyl-1H-indol-3-yl)-3-cyclohexylpropyl) propane-1,3-diamine hydrochloride salt]
pIC50 [1]: 4.96
MIC [2, 4]: 2 µg/mL
MIC [3]: 4 µg/mL

Compound: Cc1cccc(C(CCNCC(N)CN)c2cn(C3CCCCC3)c3ccccc23)c1 (stereo not drawn) [Compound 394, N1-(3-(1-cyclohexyl-1H-indol-3-yl)-3-(m-tolyl)propyl)propane-1,2,3-triamine hydrochloride salt]
pIC50 [1]: 4.82
MIC [2, 5]: 8 µg/mL
MIC [3]: 32 µg/mL

Compound: Cc1cccc(C(CCN[C@H]2CC[C@H](N)CC2)c2cn(C3CCCC3)c3ccccc23)c1.Cl.Cl (stereo partly drawn) [Compound 332, (1R,4R)-N1-(3-(1-cyclopentyl-1H-indol-3-yl)-3-(m-tolyl)propyl) cyclohexane-1,4-diamine hydrochloride salt]
pIC50 [1]: 4.41
MIC [2, 4]: 8 µg/mL
MIC [3]: 8 µg/mL

Compound: Cc1cccc(C(CCN(CCCN)CCCN)c2cn(C3CCCCC3)c3ccccc23)c1 (stereo not drawn) [Compound 363, N1-(3-aminopropyl)-N1-(3-(1-cyclohexyl-1H-indol-3-yl)-3-(m-tolyl)propyl)propane-1,3-diamine hydrochloride salt]
pIC50 [1]: 4.92
MIC [2, 5]: 16 µg/mL
MIC [3]: 32 µg/mL

Compound: FC(F)(F)Oc1cccc(-c2ccc3c(c2)c(C2CCCC(NC4CCNCC4)C2)cn3C2CCCCC2)c1 (stereo not drawn) [Compound 403, N-(3-(1-cyclohexyl-5-(3-(trifluoromethoxy)phenyl)-1H-indol-3-yl)cyclohexyl) piperidin-4-amine hydrochloride salt]
pIC50 [1]: 5.15
MIC [2, 5]: 4 µg/mL
MIC [3]: 16 µg/mL

Compound: NCCCNC1CCCC(c2cn(C3CCCCC3)c3ccc(-c4cccc(OC(F)(F)F)c4)cc23)C1 (stereo not drawn) [Compound 404, N1-(3-(1-cyclohexyl-5-(3-(trifluoromethoxy)phenyl)-1H-indol-3-yl)cyclohexyl)propane-1,3-diamine hydrochloride salt]
pIC50 [1]: 5.32
MIC [2, 5]: 4 µg/mL
MIC [3]: 8 µg/mL

Compound: Cc1cccc(C(CCNC2CCNCC2)c2cn(C3CC4CCC3C4)c3ccccc23)c1 (stereo not drawn) [Compound 323, hydrochloride salt]
pIC50 [1]: 4.38
MIC [2, 5]: 8 µg/mL
MIC [3]: 4 µg/mL

Compound: NCCCNCCC(c1cn(C2CCCCC2)c2ccccc12)C1CCCCC1 (stereo not drawn) [Compound 383, N1-(3-cyclohexyl-3-(1-cyclohexyl-1H-indol-3-yl)propyl)propane-1,3-diamine]
pIC50 [1]: 4.55
MIC [2, 4]: 4 µg/mL (≈ 10.1 µM)
MIC [3]: 4 µg/mL (≈ 10.1 µM)

Compound: Cc1cccc(C(CCN[C@H]2CC[C@H](NC(N)=O)CC2)c2cn(C3CCCCC3)c3ccccc23)c1 (stereo partly drawn) [Compound 377, 1-((1R,4R)-4-((3-(1-cyclohexyl-1H-indol-3-yl)-3-(m-tolyl)propyl)amino)cyclohexyl) urea]
pIC50 [1]: 3.89
MIC [2, 4]: 16 µg/mL (≈ 32.9 µM)
MIC [3]: > 128 µg/mL

Compound: NC1CCC(NCCC(c2cccc(OC(F)(F)F)c2)c2cn(C3CCCCC3)c3ccccc23)CC1 [Compound 397, (1S,4S)-N1-(3-(1-cyclohexyl-1H-indol-3-yl)-3-(3-(trifluoromethoxy)phenyl)propyl)cyclohexane-1,4-diamine hydrochloride salt]
pIC50 ([1]; hydrochloride salt): 5.22
S. aureus ATCC 29213 MIC ([2]; Table XIII, hydrochloride salt): 2 µg/mL
E. coli ATCC 25922 MIC ([3]; Table XIII): 8 µg/mL

Next, values leading:

pIC50 [1]: 5.08
MIC [2, 4]: 2 µg/mL (≈ 4.59 µM)
MIC [3]: 2 µg/mL (≈ 4.59 µM)
Compound: NCCCNC1CCCC(c2cn(C3CCCCC3)c3ccc(C4CCCCC4)cc23)C1 (stereo not drawn) [Compound 420, N1-(3-(1,5-dicyclohexyl-1H-indol-3-yl)cyclohexyl)propane-1,3-diamine]

pIC50 [1]: 4.64
MIC [2, 4]: 4 µg/mL
MIC [3]: 8 µg/mL
Compound: Cl.Cl.N#Cc1ccc2c(c1)c(C(CCN[C@H]1CC[C@H](N)CC1)C1CCCCC1)cn2C1CCCCC1 (stereo partly drawn) [Compound 407, 3-(3-(((1R,4R)-4-aminocyclohexyl)amino)-1-cyclohexylpropyl)-1-cyclohexyl-1H-indole-5-carbonitrile salt]

pIC50 [1]: 5.08
MIC [2, 4]: 4 µg/mL
MIC [3]: 4 µg/mL
Compound: CCCCCCCCn1cc(C(CCNCCCN)C(CC)CC)c2ccccc21.Cl.Cl (stereo not drawn) [Compound 426, N1-(4-ethyl-3-(1-octyl-1H-indol-3-yl)hexyl)propane-1,3-diamine hydrochloride salt]

pIC50 [1]: 4.39
MIC [2, 4]: 8 µg/mL
MIC [3]: 4 µg/mL
Compound: Cc1ccccc1C(CCNCCCN)c1cn(C2CCCCC2)c2ccccc12.Cl.Cl (stereo not drawn) [Compound 345, N1-(3-(1-cyclohexyl-1H-indol-3-yl)-3-(o-tolyl)propyl)propane-1,3-diamine hydrochloride salt]

pIC50 [1]: 4.80
MIC [2, 4]: 4 µg/mL
MIC [3]: 4 µg/mL
Compound: Cl.Cl.NCCCNCCC(c1cccc(C(F)(F)F)c1)c1cn(C2CCCCC2)c2ccccc12 (stereo not drawn) [Compound 351, N1-(3-(1-cyclohexyl-1H-indol-3-yl)-3-(3-(trifluoromethyl)phenyl)propyl)propane-1,3-diamine hydrochloride salt]

pIC50 [1]: 4.51
MIC [2, 4]: 8 µg/mL
MIC [3]: 2 µg/mL
Compound: Cl.Cl.NCCCNCCC(c1cn(C2CCCCC2)c2ccccc12)C1CCCC1 (stereo not drawn) [Compound 423, N1-(3-(1-cyclohexyl-1H-indol-3-yl)-3-cyclopentylpropyl) propane-1,3-diamine hydrochloride salt]

pIC50 [1]: 5.08
MIC [2, 4]: 4 µg/mL
MIC [3]: 4 µg/mL
Compound: Cc1ccccc1-c1ccc2c(c1)c(CCCNCCCN)cn2C1CCCCC1.Cl.Cl [Compound 362, N1-(3-(1-cyclohexyl-5-(o-tolyl)-1H-indol-3-yl)propyl)propane-1,3-diamine hydrochloride salt]

pIC50 [1]: 5.36
MIC [2, 4]: 2 µg/mL
MIC [3]: 4 µg/mL
Compound: CCCCCCCCn1cc(C(CCNCCCN)C2CCCCC2)c2cc(C#N)ccc21.Cl.Cl (stereo not drawn) [Compound 427, 3-(3-((3-aminopropyl)amino)-1-cyclohexylpropyl)-1-octyl-1H-indole-5-carbonitrile hydrochloride salt]

pIC50 [1]: 4.42
MIC [2, 4]: 8 µg/mL (≈ 19.8 µM)
MIC [3]: 4 µg/mL (≈ 9.91 µM)
Compound: Cc1cccc(C(CCNCCCN)c2cn(C3CCCCC3)c3ccccc23)c1 (stereo not drawn) [Compound 358, N1-(3-(1-cyclohexyl-1H-indol-3-yl)-3-(m-tolyl)propyl)propane-1,3-diamine]

pIC50 [1]: 4.40
MIC [2, 4]: 16 µg/mL (≈ 31 µM)
MIC [3]: 32 µg/mL (≈ 61.9 µM)
Compound: NCCCNCCC(c1cccc(OC(F)(F)F)c1)c1cn(C2CCCCC2)c2ccc(C(N)=O)cc12 (stereo not drawn) [Compound 376, 3-(3-((3-aminopropyl)amino)-1-(3-(trifluoromethoxy)phenyl)propyl)-1-cyclohexyl-1H-indole-5-carboxamide]

pIC50 [1]: 4.72
MIC [2, 4]: 4 µg/mL
MIC [3]: 4 µg/mL
Compound: Cc1cccc(-c2ccc3c(c2)c(CCNCCCN)cn3C2CCCCC2)c1.Cl.Cl [Compound 384, N1-(2-(1-cyclohexyl-5-(m-tolyl)-1H-indol-3-yl)ethyl)propane-1,3-diamine hydrochloride salt]

pIC50 [1]: 4.19
MIC [2, 4]: 8 µg/mL
MIC [3]: 4 µg/mL
Compound: Cl.Cl.NCCCNCCC(c1ccccc1)c1cn(C2CCCCC2)c2ccccc12 (stereo not drawn) [Compound 343, N1-(3-(1-cyclohexyl-1H-indol-3-yl)-3-phenylpropyl) propane-1,3-diamine hydrochloride salt]

pIC50 [1]: 4.46
MIC [2, 4]: 4 µg/mL
MIC [3]: 4 µg/mL
Compound: NCCCNC1CCCC(c2cn(C3CCCCC3)c3ccc(Br)cc23)C1 (stereo not drawn) [Compound 380, N1-(3-(5-bromo-1-cyclohexyl-1H-indol-3-yl)cyclohexyl)propane-1,3-diamine salt]
